Experimental data as given in patent US20100120730A1, “6-BENZYL-2,3,4,7-TETRAHYDRO-INDOLO [2,3-C] QUINOLINE COMPOUNDS USEFUL AS PDE5 INHIBITORS” (NYCOMED GmbH, priority 2007, published 2010).
pIC50: −log10 of the molar value. Where a name gives a salt, the structure may show the parent alone.

System: not given
Assay: not given
Settings: not given

**Q.** For `CC1(C)CC(=O)c2c(nc(Cc3ccc(N)cc3)c3[nH]c4ccccc4c23)C1` [Example 40, 6-(4-Amino-benzyl)-3,3-dimethyl-2,3,4,7-tetrahydro-indolo[2,3-c]quinolin-1-one], which melting point is on record?
**A.** 123 to 124 °C

**Q.** With `COc1ccc(Cc2nc3c(c4c2[nH]c2ccccc24)CCCC3)cc1F` [Example 30, 6-(3-Fluoro-4-methoxy-benzyl)-2,3,4,7-tetrahydro-1H-indolo[2,3-c]quinoline] as the molecule, how does the melting point read?
**A.** 118 to 120 °C

**Q.** Which melting point does the source give for `CC1(C)CC(=O)c2c(nc(Cc3ccc(Br)cc3)c3[nH]c4ccccc4c23)C1` (as salt: HCl) [Example 5, 6-(4-Bromo-benzyl)-3,3-dimethyl-2,3,4,7-tetrahydro-indolo[2,3-c]quinolin-1-one, HCl salt] here?
**A.** 244 to 245 °C

**Q.** With `Brc1ccc(Cc2nc3c(c4c2[nH]c2ccccc24)CCCC3)cc1` (as salt: HCl) [Example 9, 6-(4-Bromo-benzyl)-2,3,4,7-tetrahydro-1H-indolo[2,3-c]quinoline, HCl salt] as the molecule, how does the melting point read?
**A.** 311 to 312 °C

**Q.** For `CC1(C)Cc2nc(Cc3ccc(O)c(F)c3)c3[nH]c4ccccc4c3c2[C@H](O)C1` [Example 87, (R)-6-(3-Fluoro-4-hydroxy-benzyl)-3,3-dimethyl-2,3,4,7-tetrahydro-1H-indolo[2,3-c]quinolin-1-ol], which melting point is on record?
**A.** 232 to 234 °C

**Q.** With `CC1(C)CC(=O)c2c(nc(Cc3ccc([N+](=O)[O-])cc3)c3[nH]c4ccccc4c23)C1` [Example 16, 3,3-Dimethyl-6-(4-nitro-benzyl)-2,3,4,7-tetrahydro-indolo[2,3-c]quinolin-1-one] as the molecule, how does the melting point read?
**A.** 164 to 166 °C

**Q.** With `COc1c(F)cc(Cc2nc3c(c4c2[nH]c2ccccc24)[C@@H](O)CC(C)(C)C3)cc1F` [Example 89, (S)-6-(3,5-Difluoro-4-methoxy-benzyl)-3,3-dimethyl-2,3,4,7-tetrahydro-1H-indolo[2,3-c]quinolin-1-ol] as the molecule, how does the melting point read?
**A.** 161 to 162 °C

**Q.** Which melting point does the source give for `COc1c(F)cc(Cc2nc3c(c4c2[nH]c2ccccc24)[C@H](O)CC(C)(C)C3)cc1F` [Example 90, (R)-6-(3,5-Difluoro-4-methoxy-benzyl)-3,3-dimethyl-2,3,4,7-tetrahydro-1H-indolo[2,3-c]quinolin-1-ol] here?
**A.** 161 to 162 °C

**Q.** Which melting point does the source give for `CC1(C)Cc2nc(Cc3ccc(O)c(F)c3)c3[nH]c4ccccc4c3c2[C@@H](O)C1` [Example 88, (S)-6-(3-Fluoro-4-hydroxy-benzyl)-3,3-dimethyl-2,3,4,7-tetrahydro-1H-indolo[2,3-c]quinolin-1-ol] here?
**A.** 233 to 234 °C

**Q.** For `CC1(C)Cc2nc(Cc3ccc4c(c3)OCO4)c3[nH]c4ccccc4c3c2C(O)C1` (stereo not drawn) (as salt: HCl) [Example 59, 6-Benzo[1,3]dioxol-5-ylmethyl-3,3-dimethyl-2,3,4,7-tetrahydro-1H-indolo[2,3-c]quinolin-1-ol], which melting point is on record?
**A.** 114 to 119 °C

**Q.** Which melting point does the source give for `CC1(C)CC(=O)c2c(nc(Cc3ccc([N+](=O)[O-])cc3)c3[nH]c4ccccc4c23)C1` (as salt: HCl) [Example 8, 3,3-Dimethyl-6-(4-nitro-benzyl)-2,3,4,7-tetrahydro-indolo[2,3-c]quinolin-1-one, HCl salt] here?
**A.** 214 to 215 °C

**Q.** For `COc1ccc(Cc2nc3c(c4c2[nH]c2ccccc24)[C@@H](OC(=O)[C@@H]2CCC(=O)N2)CC(C)(C)C3)cc1F` [Example 98, (S)-6-(3-Fluoro-4-methoxy-benzyl)-3,3-dimethyl-2,3,4,7-tetrahydro-1H-indolo[2,3-c]quinolin-1-ol pyroglutamate], which melting point is on record?
**A.** 185 to 187 °C

Biological target: T1, human PDE5 (Homo sapiens, UniProt O76074)
T1 construct: from tissue; host or cells: human platelets from fresh donor blood (10,000 g supernatant of sonified platelets)
Assay: Inhibition of PDE5 activity (modified SPA test, human platelet lysate)
Type: biochemical
Settings: PDE5-containing human platelet lysate, 0.5 μM cGMP substrate, 37° C.
Method: As a source for human PDE5, platelets were used. For that purpose, 150 ml fresh blood from human donors anticoagulated with citrate [final concentration 0.3% (w/v)] was centrifuged at 200 g for 10 min to obtain the so-called platelet-rich-plasma (PRP) as a supernatant. 1/10 volume of ACD solution (85 mM Na3-citrate, 111 mM D-glucose, 71 mM citric acid, pH 4.4) was added to 9/10 volume of PRP. After centrifugation (1,400 g, 10 min) the cell pellet was resuspended in 3 ml homogenization buffer (NaCl 140 mM, KCl 3.8 mM, EGTA 1 mM, MgCl2 1 mM, Tris-HCl 20 mM, beta-mercaptoethanol 1 mM, pH 8.2) plus protease-inhibitor mix giving rise to the final concentrations of 0.5 mM Pefablock (Roche), 10 μM Leupeptin, 5 μM Trypsininhibitor, 2 mM Benzamidin and 10 μM Pepstatin A. The suspension was sonified and thereafter centrifuged for 15 min at 10,000 g. The resulting supernatant (platelet lysate) was used for enzymatic testings.
PDE5A1 activity is inhibited by the compounds of the invention in a modified SPA (scintillation proximity assay) test, supplied by Amersham Biosciences (see procedural instructions “phosphodiesterase [3H]cAMP SPA enzyme assay, code TRKQ 7090”), carried out in 96-well microtitre plates (MTP's). The test volume is 100 μl and contains 20 mM Tris buffer (pH 7.4), 0.1 mg of BSA (bovine serum albumin)/ml, 5 mM Mg^2+, 1 μM motapizone, 10 nM PDE2 inhibitor BAY-60-7550, 0.5 μM cGMP (including about 50,000 cpm of [3H]cGMP as a tracer), 1 μl of the respective compound dilution in dimethylsulfoxide (DMSO) and sufficient PDE5-containing platelet lysat (10,000×g supernatant, see above) to ensure that 10-20 wt % of the cGMP is converted under the said experimental conditions. […] After a preincubation of 5 min at 37° C., the reaction was started by adding the substrate (cGMP) and the assay was incubated for a further 15 min; after that, it was stopped by adding SPA beads (50 μl). In accordance with the manufacturer's instructions, the SPA beads had previously been resuspended in water, but were then diluted 1:3 (v/v) in water; the diluted solution also contains 3 mM 8-methoxymethyl-3-isobutyl-1-methylxanthine (IBMX) to ensure a complete PDE activity stop. After the beads have been sedimented (>30 min), the MTP's are analyzed in commercially available luminescence detection devices. The corresponding IC50 values of the compounds for the inhibition of PDE activity are determined from the concentration-effect curves by means of non-linear regression.

**Q.** With `CC1(C)CC(=O)c2c(nc(Cc3ccc(N)cc3)c3[nH]c4ccccc4c23)C1` [Example 40, 6-(4-Amino-benzyl)-3,3-dimethyl-2,3,4,7-tetrahydro-indolo[2,3-c]quinolin-1-one] as the molecule, how does the pIC50 read?
**A.** 7.93

**Q.** With `COc1ccc(Cc2nc3c(c4c2[nH]c2ccccc24)CCCC3)cc1F` [Example 30, 6-(3-Fluoro-4-methoxy-benzyl)-2,3,4,7-tetrahydro-1H-indolo[2,3-c]quinoline] as the molecule, how does the pIC50 read?
**A.** 8.40

**Q.** With `CCC(=O)Nc1ccc(Cc2nc3c(c4c2[nH]c2ccccc24)C(=O)CC(C)(C)C3)cc1` [Example 45, N-[4-(3,3-Dimethyl-1-oxo-2,3,4,7-tetrahydro-1H-indolo[2,3-c]quinolin-6-ylmethyl)-phenyl]-propionamide] as the molecule, how does the pIC50 read?
**A.** 7.46

**Q.** With `COc1ccc(Cc2nc3c(c4c2[nH]c2ccccc24)CCCC3)cc1` [Example 6, 6-(4-Methoxy-benzyl)-2,3,4,7-tetrahydro-1H-indolo[2,3-c]quinoline, HCl salt] as the molecule, how does the pIC50 read?
**A.** 7.90

**Q.** With `CC1(C)CC(=O)c2c(nc(Cc3ccc4c(c3)OCO4)c3[nH]c4ccccc4c23)C1` [Example 7, 6-Benzo[1,3]dioxol-5-ylmethyl-3,3-dimethyl-2,3,4,7-tetrahydro-indolo[2,3-c]quinolin-1-one, HCl salt] as the molecule, how does the pIC50 read?
**A.** 8.41

**Q.** With `COc1ccc(Cc2nc3c(c4c2[nH]c2ccccc24)C(O)CC(C)(C)C3)c(F)c1` (stereo not drawn) [Example 65, 6-(2-Fluoro-4-methoxy-benzyl)-3,3-dimethyl-2,3,4,7-tetrahydro-1H-indolo[2,3-c]quinolin-1-ol] as the molecule, how does the pIC50 read?
**A.** 8.95

**Q.** With `COc1cccc(Cc2nc3c(c4c2[nH]c2ccccc24)C(=O)CC(C)(C)C3)c1` [Example 10, 6-(3-Methoxy-benzyl)-3,3-dimethyl-2,3,4,7-tetrahydro-indolo[2,3-c]quinolin-1-one] as the molecule, how does the pIC50 read?
**A.** 7.10

**Q.** With `Brc1ccc(Cc2nc3c(c4c2[nH]c2ccccc24)CCCC3)cc1` [Example 9, 6-(4-Bromo-benzyl)-2,3,4,7-tetrahydro-1H-indolo[2,3-c]quinoline, HCl salt] as the molecule, how does the pIC50 read?
**A.** 7.64

**Q.** With `Nc1ccc(Cc2nc3c(c4c2[nH]c2ccccc24)C(=O)CCC3)cc1` [Example 42, 6-(4-Amino-benzyl)-2,3,4,7-tetrahydro-indolo[2,3-c]quinolin-1-one] as the molecule, how does the pIC50 read?
**A.** 7.59

**Q.** With `CC1(C)CC(=O)c2c(nc(Cc3ccc(O)cc3)c3[nH]c4ccccc4c23)C1` [Example 39, 6-(4-Hydroxy-benzyl)-3,3-dimethyl-2,3,4,7-tetrahydro-indolo[2,3-c]quinolin-1-one] as the molecule, how does the pIC50 read?
**A.** 8.72

**Q.** With `CC1(C)CC(=O)c2c(nc(Cc3ccc(Br)cc3)c3[nH]c4ccccc4c23)C1` [Example 5, 6-(4-Bromo-benzyl)-3,3-dimethyl-2,3,4,7-tetrahydro-indolo[2,3-c]quinolin-1-one, HCl salt] as the molecule, how does the pIC50 read?
**A.** 7.97

**Q.** With `CC1(C)CC(=O)c2c(nc(Cc3ccc(NC(N)=O)cc3)c3[nH]c4ccccc4c23)C1` [Example 75, [4-(3,3-Dimethyl-1-oxo-2,3,4,7-tetrahydro-1H-indolo[2,3-c]quinolin-6-ylmethyl)-phenyl]-urea] as the molecule, how does the pIC50 read?
**A.** 7.98

**Q.** With `Nc1cccc(Cc2nc3c(c4c2[nH]c2ccccc24)C(O)CCC3)c1` (stereo not drawn) [Example 72, 6-(3-Amino-benzyl)-2,3,4,7-tetrahydro-1H-indolo[2,3-c]quinolin-1-ol] as the molecule, how does the pIC50 read?
**A.** 7.31

**Q.** With `CC(=O)Nc1ccc(Cc2nc3c(c4c2[nH]c2ccccc24)C(=O)CCC3)cc1` [Example 46, N-[4-(1-Oxo-2,3,4,7-tetrahydro-1H-indolo[2,3-c]quinolin-6-ylmethyl)-phenyl]-acetamide] as the molecule, how does the pIC50 read?
**A.** 7.17

**Q.** With `Nc1cccc(Cc2nc3c(c4c2[nH]c2ccccc24)C(=O)CCC3)c1` [Example 43, 6-(3-Amino-benzyl)-2,3,4,7-tetrahydro-indolo[2,3-c]quinolin-1-one] as the molecule, how does the pIC50 read?
**A.** 7.94

**Q.** With `CC1(C)CC(=O)c2c(nc(Cc3ccc([N+](=O)[O-])cc3)c3[nH]c4ccccc4c23)C1` [Example 8, 3,3-Dimethyl-6-(4-nitro-benzyl)-2,3,4,7-tetrahydro-indolo[2,3-c]quinolin-1-one, HCl salt] as the molecule, how does the pIC50 read?
**A.** 7.09

**Q.** With `CC1(C)CC(=O)c2c(nc(Cc3cccc([N+](=O)[O-])c3)c3[nH]c4ccccc4c23)C1` [Example 13, 3,3-Dimethyl-6-(3-nitro-benzyl)-2,3,4,7-tetrahydro-indolo[2,3-c]quinolin-1-one] as the molecule, how does the pIC50 read?
**A.** 6.87

**Q.** With `CC1(C)Cc2nc(Cc3ccc4c(c3)OCO4)c3[nH]c4ccccc4c3c2C(O)C1` (stereo not drawn) [Example 59, 6-Benzo[1,3]dioxol-5-ylmethyl-3,3-dimethyl-2,3,4,7-tetrahydro-1H-indolo[2,3-c]quinolin-1-ol] as the molecule, how does the pIC50 read?
**A.** 8.57

**Q.** With `COc1ccc(Cc2nc3c(c4c2[nH]c2ccccc24)C(O)CC(C)(C)C3)cc1F` (stereo not drawn) [Example 68, 6-(3-Fluoro-4-methoxy-benzyl)-3,3-dimethyl-2,3,4,7-tetrahydro-1H-indolo[2,3-c]quinolin-1-ol] as the molecule, how does the pIC50 read?
**A.** 8.80

**Q.** With `O=C1CCCc2nc(Cc3cccc([N+](=O)[O-])c3)c3[nH]c4ccccc4c3c21` [Example 19, 6-(3-Nitro-benzyl)-2,3,4,7-tetrahydro-indolo[2,3-c]quinolin-1-one] as the molecule, how does the pIC50 read?
**A.** 6.54

**Q.** With `COc1ccc(Cc2nc3c(c4c2[nH]c2ccccc24)C(=O)CC(C)(C)C3)cc1` [Example 1, 6-(4-Methoxy-benzyl)-3,3-dimethyl-2,3,4,7-tetrahydro-indolo[2,3-c]quinolin-1-one] as the molecule, how does the pIC50 read?
**A.** 8.52
